Measurements from patent US8247211B2, “Glycopeptide antibiotics” (American Cyanamid Company, priority 2001, dated 2012).
Converted amounts (≈) assume the structure as drawn. One block for each molecule: values may come before it.

Experiments:
Assay in all cases: In vitro antibacterial evaluation: minimum inhibitory concentration (MIC), broth dilution method
Format in all cases: cell-based
Details in all cases: 18 hours at 35° C.
Enterococcus sp. = test system: Enterococcus sp.
Procedure, shortened: (§1)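 Using Muller-Hinton II […] and an inoculum of 5×10^5 CFU/mL, antibiotic dilutions from 64 down to 0.06 μg/mL were tested following NCCLS M7-A2. The MIC is the lowest concentration inhibiting growth, including in methicillin-, penicillin- or vancomycin-resistant clinical isolates.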

Escherichia coli = test system: Escherichia coli
Procedure, shortened: as §1

Staphylococcus sp. = test system: Staphylococcus sp.
Procedure, shortened: as §1

Streptococcus sp. = test system: Streptococcus sp.
Procedure, shortened: as §1

[1] = Enterococcus faecalis (GC 2242)
[2] = Enterococcus faecalis (GC 2691)
[3] = Enterococcus faecalis (GC 3059)
[4] = broth dilution, inoculum 5×10^5 CFU/mL
[5] = Streptococcus agalactiae (GC 4564)
[6] = Streptococcus pneumoniae (ATCC 6301)
[7] = Streptococcus pneumoniae (GC 1894)
[8] = Streptococcus pneumoniae (GC 4565)
[9] = Streptococcus pyogenes (GC 4563)

- MIC Enterococcus avium (GC 4558) (Enterococcus sp.): 4 mg/L (≈ 2.73 µM)
- MIC Enterococcus faecalis (ATCC 29212) (Enterococcus sp.): 16 mg/L (≈ 10.9 µM)
- MIC Enterococcus faecalis (GC 2242) (Enterococcus sp.; [1]): 16 mg/L (≈ 10.9 µM)
- MIC Enterococcus faecalis (GC 2691) (Enterococcus sp.; [2]): 8 mg/L (≈ 5.46 µM)
- MIC Enterococcus faecalis (GC 3059) (Enterococcus sp.; [3]): 8 mg/L (≈ 5.46 µM)
- MIC Enterococcus faecalis (GC 4552) (Enterococcus sp.): 16 mg/L (≈ 10.9 µM)
- MIC Enterococcus faecalis (GC 4553) (Enterococcus sp.): 16 mg/L (≈ 10.9 µM)
- MIC Enterococcus faecalis (GC 4554) (Enterococcus sp.): 16 mg/L (≈ 10.9 µM)
- MIC Enterococcus faecalis (GC 6189) (Enterococcus sp.): 8 mg/L (≈ 5.46 µM)
- MIC Enterococcus faecium (GC 2243) (Enterococcus sp.): 16 mg/L (≈ 10.9 µM)
- MIC Enterococcus faecium (GC 4556) (Enterococcus sp.): 16 mg/L (≈ 10.9 µM)
- MIC Enterococcus faecium (GC 4557) (Enterococcus sp.): 2 mg/L (≈ 1.36 µM)
- MIC Enterococcus faecalis (GC 2242) (Enterococcus sp.; [4]): 16 mg/L (≈ 10.9 µM)
- MIC Enterococcus faecalis (GC 2691) (Enterococcus sp.; [4]): 8 mg/L (≈ 5.46 µM)
- MIC Enterococcus faecalis (GC 3059) (Enterococcus sp.; [4]): 8 mg/L (≈ 5.46 µM)
- MIC Escherichia coli (GC 4560) (Escherichia coli): 2 mg/L (≈ 1.36 µM)
- MIC Coagulase Negative Staphylococcus (GC 4547) (Staphylococcus sp.): 4 mg/L (≈ 2.73 µM)
- MIC Coagulase Negative Staphylococcus (GC 4548) (Staphylococcus sp.): 2 mg/L (≈ 1.36 µM)
- MIC Coagulase Negative Staphylococcus (GC 4549) (Staphylococcus sp.): 2 mg/L (≈ 1.36 µM)
- MIC Coagulase Negative Staphylococcus (GC 4551) (Staphylococcus sp.): 2 mg/L (≈ 1.36 µM)
- MIC Coagulase Negative Staphylococcus (GC 6257) (Staphylococcus sp.): 2 mg/L (≈ 1.36 µM)
- MIC Staphylococcus aureus (ATCC 29213) (Staphylococcus sp.): 4 mg/L (≈ 2.73 µM)
- MIC Staphylococcus aureus (GC 1131) (Staphylococcus sp.): 4 mg/L (≈ 2.73 µM)
- MIC Staphylococcus aureus (GC 3051) (Staphylococcus sp.): 0.5 mg/L (≈ 0.341 µM)
- MIC Staphylococcus aureus (GC 3053) (Staphylococcus sp.): 4 mg/L (≈ 2.73 µM)
- MIC Staphylococcus aureus (GC 4541) (Staphylococcus sp.): 1 mg/L (≈ 0.682 µM)
- MIC Staphylococcus aureus (GC 4542) (Staphylococcus sp.): 2 mg/L (≈ 1.36 µM)
- MIC Staphylococcus aureus (GC 4544) (Staphylococcus sp.): 4 mg/L (≈ 2.73 µM)
- MIC Staphylococcus aureus (GC 4545) (Staphylococcus sp.): 4 mg/L (≈ 2.73 µM)
- MIC Staphylococcus aureus-SMITH (GC 4543) (Staphylococcus sp.): 2 mg/L (≈ 1.36 µM)
- MIC Streptococcus agalactiae (GC 4564) (Streptococcus sp.; [5]): 0.5 mg/L (≈ 0.341 µM)
- MIC Streptococcus pneumoniae (ATCC 6301) (Streptococcus sp.; [6]): <0.12 mg/L
- MIC Streptococcus pneumoniae (GC 1894) (Streptococcus sp.; [7]): <0.12 mg/L
- MIC Streptococcus pneumoniae (GC 4565) (Streptococcus sp.; [8]): 0.25 mg/L (≈ 0.171 µM)
- MIC Streptococcus pyogenes (GC 4563) (Streptococcus sp.; [9]): 0.5 mg/L (≈ 0.341 µM)
- MIC Streptococcus agalactiae (GC 4564) (Streptococcus sp.; [4]): 0.5 mg/L (≈ 0.341 µM)
- MIC Streptococcus pneumoniae (ATCC 6301) (Streptococcus sp.; [4]): <0.12 mg/L
- MIC Streptococcus pneumoniae (GC 1894) (Streptococcus sp.; [4]): <0.12 mg/L
- MIC Streptococcus pneumoniae (GC 4565) (Streptococcus sp.; [4]): 0.25 mg/L (≈ 0.171 µM)
- MIC Streptococcus pyogenes (GC 4563) (Streptococcus sp.; [4]): 0.5 mg/L (≈ 0.341 µM)
SMILES: COc1ccc(COCC2OC(OC3C(CO)OC(Oc4ccc(CC5NC(=O)C(C(C)c6ccccc6)NC(=O)CNC(=O)C(CO)NC(=O)C(C(O)C6CNC(=N)N6C6OC(CO)C(O)C(O)C6O)NC(=O)C(C(O)C6CNC(=N)N6)NC5=O)cc4)C(O)C3O)C(O)C(O)C2O)c2ccccc12 (stereo not drawn) [Example 240, Cyclo[glycyl-β-methylphenylalanyl-O-[4-O-[6-O-[(4-methoxy-1-naphthyl)methyl]hexo-pyranosyl]hexopyranosyl]tyrosyl-3-(2-iminoimidazolidin-4-yl)seryl-3-(3-hexopyranosyl-2-iminoimidazolidin-4-yl)serylseryl]]
- MIC Staphylococcus haemolyticus (GC 4546) (Staphylococcus sp.): 2 mg/L (≈ 1.36 µM)

- MIC Enterococcus avium (GC 4558) (Enterococcus sp.): 4 mg/L (≈ 2.69 µM)
- MIC Enterococcus faecalis (ATCC 29212) (Enterococcus sp.): 4 mg/L (≈ 2.69 µM)
- MIC Enterococcus faecalis (GC 2242) (Enterococcus sp.; [1]): 4 mg/L (≈ 2.69 µM)
- MIC Enterococcus faecalis (GC 2691) (Enterococcus sp.; [2]): 4 mg/L (≈ 2.69 µM)
- MIC Enterococcus faecalis (GC 3059) (Enterococcus sp.; [3]): 2 mg/L (≈ 1.34 µM)
- MIC Enterococcus faecalis (GC 4552) (Enterococcus sp.): 4 mg/L (≈ 2.69 µM)
- MIC Enterococcus faecalis (GC 4553) (Enterococcus sp.): 4 mg/L (≈ 2.69 µM)
- MIC Enterococcus faecalis (GC 4554) (Enterococcus sp.): 4 mg/L (≈ 2.69 µM)
- MIC Enterococcus faecalis (GC 6189) (Enterococcus sp.): 2 mg/L (≈ 1.34 µM)
- MIC Enterococcus faecium (GC 2243) (Enterococcus sp.): 4 mg/L (≈ 2.69 µM)
- MIC Enterococcus faecium (GC 4556) (Enterococcus sp.): 4 mg/L (≈ 2.69 µM)
- MIC Enterococcus faecium (GC 4557) (Enterococcus sp.): 2 mg/L (≈ 1.34 µM)
- MIC Enterococcus faecalis (GC 2242) (Enterococcus sp.; [4]): 4 mg/L (≈ 2.69 µM)
- MIC Enterococcus faecalis (GC 2691) (Enterococcus sp.; [4]): 4 mg/L (≈ 2.69 µM)
- MIC Enterococcus faecalis (GC 3059) (Enterococcus sp.; [4]): 2 mg/L (≈ 1.34 µM)
- MIC Escherichia coli (ATCC 25922) (Escherichia coli; Escherichia coli (ATCC 25922)): >64 mg/L
- MIC Escherichia coli (GC 4559) (Escherichia coli; Escherichia coli (GC 4559)): >64 mg/L
- MIC Escherichia coli (GC 4560) (Escherichia coli): 2 mg/L (≈ 1.34 µM)
- MIC Coagulase Negative Staphylococcus (GC 4547) (Staphylococcus sp.): 2 mg/L (≈ 1.34 µM)
- MIC Coagulase Negative Staphylococcus (GC 4548) (Staphylococcus sp.): 1 mg/L (≈ 0.672 µM)
- MIC Coagulase Negative Staphylococcus (GC 4549) (Staphylococcus sp.): 2 mg/L (≈ 1.34 µM)
- MIC Coagulase Negative Staphylococcus (GC 4551) (Staphylococcus sp.): 4 mg/L (≈ 2.69 µM)
- MIC Coagulase Negative Staphylococcus (GC 6257) (Staphylococcus sp.): 2 mg/L (≈ 1.34 µM)
- MIC Staphylococcus aureus (ATCC 29213) (Staphylococcus sp.): 2 mg/L (≈ 1.34 µM)
- MIC Staphylococcus aureus (GC 1131) (Staphylococcus sp.): 2 mg/L (≈ 1.34 µM)
- MIC Staphylococcus aureus (GC 3051) (Staphylococcus sp.): 2 mg/L (≈ 1.34 µM)
- MIC Staphylococcus aureus (GC 3053) (Staphylococcus sp.): 2 mg/L (≈ 1.34 µM)
- MIC Staphylococcus aureus (GC 4541) (Staphylococcus sp.): 2 mg/L (≈ 1.34 µM)
- MIC Staphylococcus aureus (GC 4542) (Staphylococcus sp.): 2 mg/L (≈ 1.34 µM)
- MIC Staphylococcus aureus (GC 4544) (Staphylococcus sp.): 2 mg/L (≈ 1.34 µM)
- MIC Staphylococcus aureus (GC 4545) (Staphylococcus sp.): 2 mg/L (≈ 1.34 µM)
- MIC Staphylococcus aureus-SMITH (GC 4543) (Staphylococcus sp.): 2 mg/L (≈ 1.34 µM)
- MIC Streptococcus agalactiae (GC 4564) (Streptococcus sp.; [5]): <0.06 mg/L
- MIC Streptococcus pneumoniae (ATCC 6301) (Streptococcus sp.; [6]): <0.06 mg/L
- MIC Streptococcus pneumoniae (GC 1894) (Streptococcus sp.; [7]): <0.06 mg/L
- MIC Streptococcus pneumoniae (GC 4565) (Streptococcus sp.; [8]): <0.06 mg/L
- MIC Streptococcus pyogenes (GC 4563) (Streptococcus sp.; [9]): <0.06 mg/L
- MIC Streptococcus agalactiae (GC 4564) (Streptococcus sp.; [4]): <0.06 mg/L
- MIC Streptococcus pneumoniae (ATCC 6301) (Streptococcus sp.; [4]): <0.06 mg/L
- MIC Streptococcus pneumoniae (GC 1894) (Streptococcus sp.; [4]): <0.06 mg/L
- MIC Streptococcus pneumoniae (GC 4565) (Streptococcus sp.; [4]): <0.06 mg/L
- MIC Streptococcus pyogenes (GC 4563) (Streptococcus sp.; [4]): <0.06 mg/L
SMILES: CC(c1ccccc1)C1NC(=O)CNC(=O)C(CO)NC(=O)C(C(O)C2CNC(=N)N2C2OC(CO)C(O)C(O)C2O)NC(=O)C(C(O)C2CNC(=N)N2)NC(=O)C(Cc2ccc(OC3OC(CO)C(OC4OC(COCC=C(c5ccccc5)c5ccccc5)C(O)C(O)C4O)C(O)C3O)cc2)NC1=O (stereo not drawn) [Example 241, Cyclo[glycyl-β-methylphenylalanyl-O-[4-O-[6-O-[3,3-diphenylprop-2-en-1-yl)hexopyranosyl]-hexopyranosyl]tyrosyl-3-(2-iminoimidazolidin-4-yl)seryl-3-(3-hexopyranosyl-2-iminoimidazolidin-4-yl)serylseryl]]
- MIC Staphylococcus haemolyticus (GC 4546) (Staphylococcus sp.): 2 mg/L (≈ 1.34 µM)
